Tests used:
[1] = Microsome assay, human liver microsomes; type: in vitro ADME
Experimental: Human and mouse liver microsomes were obtained from XenoTech, LLC (Kansas City, KS). The reaction mixture was composed of liver microsomes (0.5 mg/mL), 20 mM Tris-HCl pH 7.4, 2.5 mM MgCl2, and an NADPH generating system (0.1 mM NADP, 1.2 mM glucose-6-phosphate and 0.3 units/ml glucose-6-phophate dehydrogenase). […] Test compounds were added to the microsome reaction and loss of parent molecule was monitored after 1 h by LC/MS/MS.

[2] = Protein binding, human plasma (ultrafiltration); type: in vitro ADME; conditions: human, plasma, pH 7.4
Experimental: Binding of test compound to plasma proteins was estimated by incubation of test compounds with mouse or human plasma. Human plasma was obtained from BioreclamationIVT (Westbury, NY). […] After a 15 min incubation at 37°C, triplicate aliquots of the incubation mixtures were transferred to a Millipore Multiscreen Ultracel-10 filter plate (10 kDa molecular mass cut off, EMD Millipore, Billerica, MA). The plate was centrifuged for 60 min at 3000 × g and 37°C. After centrifugation, aliquots of both the ultrafiltrates as well as the incubation mixtures prior to ultrafiltration were analyzed by LC-MS/MS to quantify the concentrations of test compound and reference compounds.

[3] = tested on: HIV-1 transcription in 24STNLSG cells; test: SEAP assay in 24STNLSG cells (latency reactivation); type: cell-based; conditions: 72 h; for Max. fold induction, 24STNLSG: SEAP reporter; for EC2X, 24STNLSG: concentration for 2-fold increase in SEAP activity
Experimental: SupT1-derived 24STNLSG cells were plated at 100,000 cells/well in black bottom/black walled 96-well plates in 50 μl RPMI-1640 medium (without phenol red) containing 10% FBS. Compound was added in 50 μl of identical medium using three-fold dose-response dilutions, in duplicate. […] TNF-α, a nuclear factor-κB (NF-κB) activator known to induce HIV- expression in cellular models, was used as a positive control. Plates were incubated for 72 h at 37°C, 5% CO2. Plates were then sealed and heated to 65°C for 30 min. Plates were brought to room temperature and 50 μl assay buffer (1 mM MgCl2, 10 mM L-homoarginine, 1 M diethylamine hydrochloride) was added to each well and incubated for 5 min at room temperature. To each well, 50 μl of CSPD Substrate (0.4 mM Ready-to-Use with Sapphire-II Enhancer; Applied Biosystems, Foster City, CA) was added. Plates were incubated for 20 min at room temperature and read on a ViewLux microplate imager (Perkin Elmer, Waltham, MA). Curves were fit by non-linear regression using Prism software (GraphPad, San Diego, CA).

[4] = tested on: HeLa nuclear extracts, HDAC1, HDAC2, HDAC3, HDAC8; test: HDAC inhibition assay (fluorometric); type: biochemical; conditions: 10 μM
Experimental: HDAC inhibition was determined using HDAC Fluorometric Activity Assay/Drug Discovery Kit (BIOMOL International, Inc.) according to the manufacturer’s recommendations. HeLa cell nuclear extracts and purified HDACs 1, 2, 3, and 8 were obtained from BIOMOL. Briefly, HDAC inhibitors and test compounds were diluted to 5× concentration in assay buffer in a white, flat-bottom 96-well plate. HDAC samples (purified HDAC or HeLa nuclear extract) were diluted to the desired concentration in assay buffer and added to each well. HeLa extract was employed at a 150-fold dilution, while individual HDACs were tested at 0.3–9 μg/ml. Fluor de Lys™ substrate was diluted to 2× concentration in assay buffer and the HDAC reaction was initiated by addition of substrate to each well followed by incubation for 60 min at room temperature. A final concentration of 0.4% DMSO and 50 μM Fluor de Lys™ substrate was present in all samples. Samples with no enzyme were used as blanks and vehicle-only samples were used as negative controls. HDAC reactions were quenched by adding Fluor de Lys™ developer containing 2 μM trichostatin A. Plates were incubated at room temperature for 15 min prior to reading fluorescence for 0.1 s with an excitation wavelength of 360 nm and emission of 460 nm using a 5 nm slit on a Cary Eclipse Fluorescence Spectrophotometer (Varian, Inc.). […]

[5] = tested on: NF-κB response element reporter in Jurkat cells; test: NF-κB-responsive Fluc reporter in Jurkat cells; type: cell-based, human; conditions: stably-transfected Jurkat cells, 4 h
Description: The vector pGL4.32[luc2P/NF-κB-RE/Hygro] was purchased from Promega (Madison, WI), encoding 5 copies of a NF-κB response element driving expression of synthetic firefly luciferase gene, luc2, including a PEST destabilization sequence. Jurkat cells were transfected with this vector using a Gene Pulser® II (Biorad, Hercules, CA) with a 0.4 cm gap cuvette at 0.2 kV and 960 μF. Cells were allowed to recover for three days in RPMI-1640 with 10% FBS and 1% penicillin/streptomycin before selection with 200 μg/ml Hygromycin B for one month. Pooled, stably-transfected cells were plated at 50,000/well in 96-well plates and treated with test compounds in a final concentration of 0.5% DMSO for 4 h at 37°C. Luciferase activity was determined by adding one volume 2× steadylite plus reagent (Perkin Elmer, Waltham, MA) and reading on a ViewLux microplate imager.

Caco-2 cells = test: Caco-2 assay; type: in vitro ADME, human; conditions: 10 μM, 1 h, top to bottom chamber
Experimental: Caco-2 cells obtained from ATCC were plated on filters of a 24-well Boyden chamber and allowed to replicate for five days. Prior to initiating a study, the integrity of the cell layer was assessed by measuring the transepithelial electrical resistance (TEER) values. […] After 1h, medium was removed from the bottom chamber. After completion of the assay, the integrity of the cell layer was measured by transfer of the fluorescent dye, Lucifer yellow, across the cell layer. Samples taken from the apical chamber at the start of the study and from the basal chamber at the end of the study were assessed for drug levels using LC-MS/MS technology and used to calculate the apparent permeability (Papp).

## Nc1ccc2[nH]c(-c3ccc(-c4nc5cc(N)ccc5o4)cc3)nc2c1 [Compound 1, 2-(4-(5-amino-1H-benzimidazol-2-yl)phenyl)benzoxazol-5-amine]
[1]
  HLM stability (% loss of parent compound at 1 h): 57%
[2]
  fraction unbound at 15 min, 10 μM: < 0.01
[3]
  Max. fold induction, 24STNLSG: up to 80 fold
  EC2X, 24STNLSG: 1.5 ± 0.7 µM
[3]; listed as Cmpd 1
  Max. fold induction, 24STNLSG: 80 fold
[4]
  HDAC inhibitory activity (in words): no HDAC inhibitory activity
[5]
  Induction of NF-κB driven reporter (in words): Neither Compound 1 nor Compound 2 induced
Caco-2 cells
  Caco-2 Papp: 38 10^−6 cm/s
Caco-2 cells; listed as compound 1
  Caco-2 Papp: 4.8 10^−6 cm/s

## Nc1ccc2[nH]c(-c3ccc(-c4nc5ccc(N)cc5o4)cc3)nc2c1 [Compound 2]
[1]
  HLM stability (% loss of parent compound at 1 h): 61%
[2]
  fraction unbound at 15 min, 10 μM: < 0.003
[3]
  Max. fold induction, 24STNLSG: 76 fold
  EC2X, 24STNLSG: 2.7 ± 2.3 µM
[4]
  HDAC inhibitory activity (in words): no HDAC inhibitory activity
[5]
  Induction of NF-κB driven reporter (in words): Neither Compound 1 nor Compound 2 induced
Caco-2 cells
  Caco-2 Papp: 4.8 10^−6 cm/s
Caco-2 cells; listed as compound 2
  Caco-2 Papp: 38 10^−6 cm/s

From paper PMC5489165, “Identification of benzazole compounds that induce HIV-1 transcription” (PLoS ONE, 2017)
